Patent publication US11124881B2, “Hydrophilic metal surface treatment agent” (CHEMICAL DENSHI CO., LTD., priority 2019, dated 2021)

Assay: Water-solubility test
Assay type: physicochemical
Protocol: The hydrophilic metal surface treatment agent (Compound 21) (MW 608.86, 0.32 g) produced in Example 3 was added to ultrapure water (50.09 g), and the mixture was stirred after the water temperature was heated to 60° C.
With respect to even the hydrophilic metal surface treatment agent having an octadecyl group, i.e. n-C18H37, as a long chain hydrocarbon group, an aqueous solution having a concentration of 10.32 mM could be prepared.

- visible undissolved residue (0.32 g in ultrapure water 50.09 g, stirred at 60° C., after 3 hours): no visible undissolved residue
- concentration of aqueous solution that could be prepared (ultrapure water, 60° C., no surfactant or solubilizing agent): 10320 µM
SMILES: CCCCCCCCCCCCCCCCCCSC(=O)CCC(=O)NC(COC(COC(CO)CO)COC(CO)CO)COC(COC(CO)CO)COC(CO)CO [Compound 21]
